target: T1, FLT3-D835Y (Homo sapiens, UniProt P36888, D835Y); assay: AlphaScreen kinase assay with recombinant enzyme, FLT3-D835Y; format: biochemical; conditions: 8pt, GMean
T1 construct: purchased Invitrogen PV3967
T1 sequence (P36888 27-993 D835Y): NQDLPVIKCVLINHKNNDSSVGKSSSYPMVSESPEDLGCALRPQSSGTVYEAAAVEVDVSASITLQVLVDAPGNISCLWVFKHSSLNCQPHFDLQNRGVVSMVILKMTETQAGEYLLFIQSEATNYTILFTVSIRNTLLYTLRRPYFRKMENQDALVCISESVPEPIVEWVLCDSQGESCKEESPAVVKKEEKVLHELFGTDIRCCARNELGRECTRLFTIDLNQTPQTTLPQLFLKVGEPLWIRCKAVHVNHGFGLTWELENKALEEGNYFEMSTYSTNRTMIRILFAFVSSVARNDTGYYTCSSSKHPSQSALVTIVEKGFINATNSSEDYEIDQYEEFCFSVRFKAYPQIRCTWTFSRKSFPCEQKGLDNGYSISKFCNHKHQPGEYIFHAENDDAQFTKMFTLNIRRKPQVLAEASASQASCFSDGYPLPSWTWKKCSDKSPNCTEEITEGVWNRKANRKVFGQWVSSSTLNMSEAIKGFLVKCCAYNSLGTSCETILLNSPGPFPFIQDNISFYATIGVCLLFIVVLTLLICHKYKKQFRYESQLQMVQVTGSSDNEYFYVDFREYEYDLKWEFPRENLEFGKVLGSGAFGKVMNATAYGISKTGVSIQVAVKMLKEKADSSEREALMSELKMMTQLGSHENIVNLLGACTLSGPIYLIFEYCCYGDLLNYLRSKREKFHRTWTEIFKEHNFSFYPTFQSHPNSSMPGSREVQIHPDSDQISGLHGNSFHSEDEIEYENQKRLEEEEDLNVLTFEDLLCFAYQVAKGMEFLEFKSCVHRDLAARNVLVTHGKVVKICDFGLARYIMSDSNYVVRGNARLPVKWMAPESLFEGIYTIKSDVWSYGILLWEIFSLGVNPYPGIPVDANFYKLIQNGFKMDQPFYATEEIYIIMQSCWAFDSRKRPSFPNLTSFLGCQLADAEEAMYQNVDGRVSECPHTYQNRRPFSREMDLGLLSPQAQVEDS
Protocol: In order to determine the effect of compounds on FLT3 catalytic activity, kinase assays using recombinant enzymes and AlphaScreen® technology have been established. The catalytic activity of c-kit activity was also measured to determine selectivity of the compounds. When the kinases are catalytically active, they phosphorylate a biotinylated peptide substrate on tyrosine residues. Using AlphaScreen® technology, the ability of the compounds to affect the catalytic activity of the kinases can be measured quantitatively. The peptide substrate is immobilized by the AlphaScreen® Streptavidin Donor beads and, upon phosphorylation by a tyrosine kinase, can bind to AlphaScreen® Anti-Phosphotyrosine (PY20) Acceptor beads. Upon excitation of these beads with laser light at 680 nm, singlet oxygen is produced. This singlet oxygen is rapidly quenched, unless the AlphaScreen® Anti-Phosphotyrosine (PY20) Acceptor beads are in close proximity, in which case a proximity signal can be measured at 580 nm. In the presence of catalytic activity, there is a very strong proximity signal. Selective kinase inhibitors affect a decrease in this proximity signal through a decrease in tyrosine phosphorylation of the peptide substrate.
The assay was performed as summarized below.
Poly (Glu4-Tyr) Peptide, biotin conjugate [Biotin-GG(EEEEY)10EE] (SEQ ID NO: 4)
Final concentration=30 nM
Final concentration for IC50 determination=10 μM (FLT3-D835Y or FLT3-ITD) or 100 μM (c-KIT)
AlphaScreen® Phosphotyrosine (PY20) Assay Kit
Final concentration=10 μg/mL
Dilute compounds in DMSO to 20× final concentration.
Add 1 μl of compound to each well of 384 well reaction plate (Perkin Elmer #6005359).
Mix enzyme and Poly (Glu4-Tyr) Peptide substrate at 1.33× final concentration in assay buffer.
Mix ATP at 5× final concentration in assay buffer.
Add 15 μL enzyme/substrate mixture to the reaction plate.
Add 4 μL of ATP to the reaction plate.
Mix Streptavidin Donor beads at 6× final concentration in Stop/Detection buffer.
Add 5 μL Streptavidin Donor beads to the reaction plate. Centrifuge 1 minute, shake to mix, and incubate at room temperature for 20 minutes.
Mix Anti-Phosphotyrosine (PY20) Acceptor beads at 6× final concentration in Stop/Detection buffer.
Add 5 μL Anti-Phosphotyrosine (PY20) beads to the reaction plate.
Centrifuge 1 minute, shake to mix, and incubate at room temperature for 60 minutes.
Read plate on Wallac EnVision™ 2103 Multilabel Reader.

IC50, 0.0001 to 10 µM:
CC(C)(NC(=O)c1cccc(-c2cnc3[nH]c(C4=CCN(C(=O)C5CC5)C4)cc3c2)n1)C(N)=O [Compound P-0179, N-(2-amino-1,1-dimethyl-2-oxo-ethyl)-6-[2-[1-(cyclopropanecarbonyl)-2,5-dihydropyrrol-3-yl]-1H-pyrrolo[2,3-b]pyridin-5-yl]pyridine-2-carboxamide]
COc1cc(-c2cc3cc(-c4cccc(C(=O)NCC(C)(C)C#N)n4)cnc3[nH]2)ccn1 [Compound P-0154, N-(2-cyano-2-methyl-propyl)-6-[2-(2-methoxy-4-pyridyl)-1H-pyrrolo[2,3-b]pyridin-5-yl]pyridine-2-carboxamide]
N#CCCNC(=O)c1cccc(-c2cnc3[nH]c(-c4ccccc4)c(I)c3c2)n1 [Compound P-0143, N-(2-cyanoethyl)-6-(3-iodo-2-phenyl-1H-pyrrolo[2,3-b]pyridin-5-yl)pyridine-2-carboxamide]
N#CC1(NC(=O)c2cccc(-c3cnc4[nH]c(-c5ccccc5)c(Cl)c4c3)n2)CC1 [Compound P-0139, 6-(3-chloro-2-phenyl-1H-pyrrolo[2,3-b]pyridin-5-yl)-N-(1-cyanocyclopropyl)pyridine-2-carboxamide]
Cc1cc(-c2cc3cc(-c4cccc(C(=O)NC(C)(C)C#N)n4)cnc3[nH]2)cnn1 [Compound P-0163, N-(1-cyano-1-methyl-ethyl)-6-[2-(6-methylpyridazin-4-yl)-1H-pyrrolo[2,3-b]pyridin-5-yl]pyridine-2-carboxamide]
CN(CCC#N)C(=O)c1cccc(-c2cnc3[nH]c(-c4ccccc4)cc3c2)n1 [Compound P-0119, N-(2-cyanoethyl)-N-methyl-6-(2-phenyl-1H-pyrrolo[2,3-b]pyridin-5-yl)pyridine-2-carboxamide]
CC(C)(C#N)CNC(=O)c1cccc(-c2cnc3[nH]c(-c4ccccc4)cc3c2)n1 [Compound P-0100, N-(2-cyano-2-methyl-propyl)-6-(2-phenyl-1H-pyrrolo[2,3-b]pyridin-5-yl)pyridine-2-carboxamide]
N#Cc1cccc(-c2cc3cc(-c4cccc(C(=O)N5CCC(C#N)C5)n4)cnc3[nH]2)c1 (stereo not drawn) [Compound P-0133, 1-[6-[2-(3-cyanophenyl)-1H-pyrrolo[2,3-b]pyridin-5-yl]pyridine-2-carbonyl]pyrrolidine-3-carbonitrile]
N#CC1CCN(S(=O)(=O)c2cccc(-c3cnc4[nH]c(-c5ccccc5)cc4c3)n2)C1 (stereo not drawn) [Compound P-0121, 1-[[6-(2-phenyl-1H-pyrrolo[2,3-b]pyridin-5-yl)-2-pyridyl]sulfonyl]pyrrolidine-3-carbonitrile]
N#C[C@H]1CCN(C(=O)c2cccc(-c3cnc4[nH]c(-c5ccccc5)cc4c3)n2)C1 [Compound P-0117, (3S)-1-[6-(2-phenyl-1H-pyrrolo[2,3-b]pyridin-5-yl)pyridine-2-carbonyl]pyrrolidine-3-carbonitrile]
CC(C)(C#N)CNC(=O)c1cccc(-c2cnc3[nH]c(-c4ccnc(C5CC5)c4)cc3c2)n1 [Compound P-0152, N-(2-cyano-2-methyl-propyl)-6-[2-(2-cyclopropyl-4-pyridyl)-1H-pyrrolo[2,3-b]pyridin-5-yl]pyridine-2-carboxamide]
N#CC1(CNC(=O)c2cccc(-c3cnc4[nH]c(-c5ccccc5)c(Cl)c4c3)n2)CC1 [Compound P-0148, 6-(3-chloro-2-phenyl-1H-pyrrolo[2,3-b]pyridin-5-yl)-N-[(1-cyanocyclopropyl)methyl]pyridine-2-carboxamide]
CC(C)(C#N)CNC(=O)c1cccc(-c2cnc3[nH]c(-c4ccccc4)c(Br)c3c2)n1 [Compound P-0126, 6-(3-bromo-2-phenyl-1H-pyrrolo[2,3-b]pyridin-5-yl)-N-(2-cyano-2-methyl-propyl)pyridine-2-carboxamide]
Cn1cc(-c2cc3cc(-c4cccc(C(=O)NCC(C)(C)C#N)n4)cnc3[nH]2)ccc1=O [Compound P-0155, N-(2-cyano-2-methyl-propyl)-6-[2-(1-methyl-6-oxo-3-pyridyl)-1H-pyrrolo[2,3-b]pyridin-5-yl]pyridine-2-carboxamide]
O=C(c1cccc(-c2cnc3[nH]c(-c4ccccc4)cc3c2)n1)N1CCC(F)(F)C1 [Compound P-0093, (3,3-difluoropyrrolidin-1-yl)-[6-(2-phenyl-1H-pyrrolo[2,3-b]pyridin-5-yl)-2-pyridyl]methanone]
N#CCCNC(=O)c1cccc(-c2cnc3[nH]c(-c4ccccc4)cc3c2)n1 [Compound P-0099, N-(2-cyanoethyl)-6-(2-phenyl-1H-pyrrolo[2,3-b]pyridin-5-yl)pyridine-2-carboxamide]
N#CC1CCN(C(=O)c2cccc(-c3cnc4[nH]c(C5=CCCCC5)cc4c3)n2)C1 (stereo not drawn) [Compound P-0120, 1-[6-[2-(cyclohexen-1-yl)-1H-pyrrolo[2,3-b]pyridin-5-yl]pyridine-2-carbonyl]pyrrolidine-3-carbonitrile]
Cn1cncc1C#Cc1cc2cc(-c3cccc(C(=O)NC(C)(C)C#N)n3)cnc2[nH]1 [Compound P-0177, N-(1-cyano-1-methyl-ethyl)-6-[2-[2-(3-methylimidazol-4-yl)ethynyl]-1H-pyrrolo[2,3-b]pyridin-5-yl]pyridine-2-carboxamide]
O=C(NC1(CO)CC1)c1cccc(-c2cnc3[nH]c(-c4ccccc4)cc3c2)n1 [Compound P-0151, N-[1-(hydroxymethyl)cyclopropyl]-6-(2-phenyl-1H-pyrrolo[2,3-b]pyridin-5-yl)pyridine-2-carboxamide]
CC(C)(C#N)NC(=O)c1cccc(-c2cnc3[nH]c(-c4ccc(C5CC5)cc4)cc3c2)n1 [Compound P-0189, N-(1-cyano-1-methyl-ethyl)-6-[2-(4-cyclopropylphenyl)-1H-pyrrolo[2,3-b]pyridin-5-yl]pyridine-2-carboxamide]
O=C(NC1(C(F)(F)F)CCCC1)c1cccc(-c2cnc3[nH]c(-c4ccccc4)cc3c2)n1 [Compound P-0149, 6-(2-phenyl1H-pyrrolo[2,3-b]pyridin-5-yl)-N-[1-(trifluoromethyl)cyclopentyl]pyridine-2-carboxamide]
O=C(c1cccc(-c2cnc3[nH]c(-c4ccccc4)cc3c2)n1)N1CCC(n2ccnc2)C1 (stereo not drawn) [Compound P-0097, (3-imidazol-1-ylpyrrolidin-1-yl)-[6-(2-phenyl-1H-pyrrolo[2,3-b]pyridin-5-yl)-2-pyridyl]methanone]
CC(C)(C#N)CNC(=O)c1cccc(-c2cnc3[nH]c(C4=CCSCC4)cc3c2)n1 [Compound P-0159, N-(2-cyano-2-methyl-propyl)-6-[2-(3,6-dihydro-2H-thiopyran-4-yl)-1H-pyrrolo[2,3-b]pyridin-5-yl]pyridine-2-carboxamide]
CC(C)(C#N)CNC(=O)c1cccc(-c2cnc3[nH]c(-c4ccccc4)c(I)c3c2)n1 [Compound P-0127, N-(2-cyano-2-methyl-propyl)-6-(3-iodo-2-phenyl-1H-pyrrolo[2,3-b]pyridin-5-yl)pyridine-2-carboxamide]

Reference: patent publication US9938273B2 (Plexxikon Inc., priority 2015, dated 2018)
